Results as given in US8685981B2, “Cyclic compound having hetero atom” (Daiichi Sankyo Company, Limited, priority 2009, dated 2014).

system: female F344 rats; assay: Effect on bone density (oophorectomy or sham surgery, femur DXA); type: in vivo; conditions: 3 mg/kg, orally once a day, six days a week, six to eight weeks, female F344 rats after oophorectomy or sham surgery
Experimental: Eight to 12 week old female F344 rats were purchased from Charles River Laboratories and used in the following experiment. Rats were anesthetized with an intraperitoneal administration of 40 mg/kg of Somnopentyl (Kyoritsu Seiyaku Corporation), and then oophorectomy or sham surgery was performed. From the day after surgery, a suspension of the test compound in a 0.5% methyl cellulose solution (Wako pure chemical industries, Ltd. Cat. No. 133-14255) was orally administered once a day, six days a week. Six to eight weeks after administration, the rats were euthanized by removal of whole blood from the lower abdominal aorta under Somnopentyl anesthesia, and the left and right femur was excised.
After removal of soft tissues, the bone density of the femur thus excised was measured by a DXA apparatus, DCS-600R (Aloka Co., Ltd.). The bone density was assessed in the whole femur as well as in three equal sections of the whole femur, namely the proximal end, the shaft, and the distal end.

SMILES	bone density of the femur
NC(=O)c1ccc2cncc(N3CCC(OCCO[C@@H]4CCOC4)CC3)c2n1 [Example 3, 8-(4-{2-[(3R)-Tetrahydrofuran-3-yloxy]ethoxy}piperidin-1-yl)-1,6-naphthyridine-2-carboxamide]	significantly increased
NC(=O)c1ccc2cncc(N3CCC(OCCO[C@H]4CCOC4)CC3)c2n1 [Example 4, 8-(4-{2-[(3S)-Tetrahydrofuran-3-yloxy]ethoxy}piperidin-1-yl)-1,6-naphthyridine-2-carboxamide]	significantly increased
Cl.NC(=O)c1ccc2cncc(N3CCC(OCCOC4CCOCC4)CC3)c2n1 [Example 7, 8-{4-[2-(Tetrahydro-2H-pyran-4-yloxy)ethoxy]piperidin-1-yl}-1,6-naphthyridine-2-carboxamide hydrochloride]	significantly increased
NC(=O)c1ccc2cncc(N3CCCCC3)c2n1 [Example 12, 8-Piperidin-1-yl-1,6-naphthyridine-2-carboxamide]	significantly increased
NC(=O)c1ccc2cncc(N3CCN(c4ccccc4)CC3)c2c1 [Example 15, 4-(4-Phenylpiperazin-1-yl)isoquinoline-6-carboxamide]	significantly increased

system: ST2 cells, murine bone marrow-derived stromal cells; assay: Osteoblast differentiation test (alkaline phosphatase activity); type: cell-based; conditions: Mus musculus, ST-2, 96 h, at 0.03 μg/mL, four days of culturing, control group (0.1% DMSO) set at 100%, read-out: increase (%) in alkaline phosphatase activity
Experimental: ST2 cells, murine bone marrow-derived stromal cells, (obtained from RIKEN) were used.
In this test, α-MEM media (obtained from GIBCO BRL Cat. No. 10370-021) containing 10% (v/v) of inactivated calf serum (obtained from Hyclone Laboratories, Inc.) and 1% (v/v) of Penicillin-Streptomycin Liquid (obtained from GIBCO BRL Cat. No. 15140-122) (hereinbelow, abbreviated as 10%-FBS-αMEM) were used. In this test, all culturing was performed in a CO2 incubator (37° C., 95% humidity, 5% CO2).
The aforementioned cells were detached with 2 mL of a 0.25% trypsin solution (obtained from GIBCO BRL Cat. No. 15050-065) and dispersed in 10 mL of 10%-FBS-αMEM. Subsequently, the cells were collected by centrifugation (25° C., 800 rpm, five minutes). Then, a cell suspension containing 40000 of the cells/mL of 10%-FBS-αMEM was prepared. The cell suspension was then dispensed into 96-well plates (the product of Falcon), 100 μL per well, at a density of 4000 cells/well, followed by culturing for 24 hours. To the wells except for the below-described well containing a control group, the compound was dispensed at final concentrations of 0.01, 0.03, 0.1, and 0.3 μg/ml. To the well of a control group, DMSO was dispensed at a final concentration of 0.1% (v/v). After four days of culturing, the activity of alkaline phosphatase (ALP) was measured in each group.
The measurement of ALP activity was performed as follows. That is, the medium in each well of the culture plates was completely removed. Each well was then washed by dispensing 100 μL of Dulbecco's phosphate buffer (obtained from GIBCO BRL Cat. No. 14190-144) and then removing it. A cell lysate solution containing 10 mM MgCl2 and 2% (v/v) TritonX-100 (Sigma) was prepared and dispensed at 50 μL/well, followed by stirring at room temperature for five minutes. An ALP substrate solution containing 50 mM diethanolamine (Wako pure chemical industries, Ltd., Cat. No. 099-03112) and 20 mM p-nitrophenyl phosphate (Wako pure chemical industries, Ltd., Cat. No. 147-02343) was prepared and dispensed at 50 μL/well, and the plates were left to stand at room temperature for 10 minutes. Subsequently, absorbance was measured by a microplate reader (Bio-Rad Laboratories, Inc.). Setting the measurement value of the control group of each plate at 100%, the increase (%) in alkaline phosphatase activity in the test compound-addition group was calculated, which was assessed as the degree of osteoblast differentiation.

SMILES	activity at 0.03 µg/mL
NC(=O)c1ccc2cncc(N3CCC(OCCO[C@@H]4CCOC4)CC3)c2n1 [Example 3, 8-(4-{2-[(3R)-Tetrahydrofuran-3-yloxy]ethoxy}piperidin-1-yl)-1,6-naphthyridine-2-carboxamide]	≥ 200%
NC(=O)c1ccc2cncc(N3CCC(OCCO[C@H]4CCOC4)CC3)c2n1 [Example 4, 8-(4-{2-[(3S)-Tetrahydrofuran-3-yloxy]ethoxy}piperidin-1-yl)-1,6-naphthyridine-2-carboxamide]	≥ 200%
NC(=O)c1ccc2cncc(N3CCCCC3)c2n1 [Example 12, 8-Piperidin-1-yl-1,6-naphthyridine-2-carboxamide]	≥ 200%
NC(=O)c1ccc2cncc(N3CCN(c4ccccc4)CC3)c2c1 [Example 15, 4-(4-Phenylpiperazin-1-yl)isoquinoline-6-carboxamide]	≥ 200%
NC(=O)c1ccc2cncc(N3CCC(COC4CCOCC4)CC3)c2c1 [Example 77]	≥ 200%
NC(=O)c1ccc2cncc(N3CCN(C(=O)c4ccccc4)CC3)c2c1 [Example 78]	≥ 200%
CC(=O)N1CCN(c2cncc3ccc(C(N)=O)cc23)CC1 [Example 79]	≥ 200%
NC(=O)c1ccc2cncc(N3CCC(OCCOC4CCOCC4)CC3)c2c1 [Example 81]	≥ 200%
CN(C)C(=O)CCC1CCN(c2cncc3ccc(C(N)=O)cc23)CC1 [Example 82]	≥ 200%
NC(=O)c1ccc2cncc(N3CCC(c4ccccc4)CC3)c2n1 [Example 83]	≥ 200%
COCC1CN(c2cncc3ccc(C(N)=O)cc23)CCN1c1ccccc1 (centres unmarked) [Example 84]	≥ 200%
NC(=O)c1ccc2cncc(N3CCC(OCCOCCO)CC3)c2c1 [Example 85]	≥ 200%
NC(=O)c1ccc2cncc(N3CCC(OCCOC4CC4)CC3)c2c1 [Example 87]	≥ 200%
NC(=O)c1ccc2cncc(N3CCC(O)CC3)c2c1 [Example 89]	≥ 200%
NC(=O)c1ccc2cncc(N3CCC(OCCS(=O)(=O)N4CCOCC4)CC3)c2n1 [Example 92]	≥ 200%
NC(=O)c1ccc2cncc(N3CCC(OCC(=O)N4CCOCC4)CC3)c2c1 [Example 93]	≥ 200%
CN(C)C(=O)COC1CCN(c2cncc3ccc(C(N)=O)cc23)CC1 [Example 94]	≥ 200%
NC(=O)c1ccc2cncc(N3CCC(COC(F)F)CC3)c2c1 [Example 95]	≥ 200%

SMILES	activity at 0.03 µg/mL
NC(=O)c1ccc2cncc(N3CCC(OCCS(=O)(=O)N4CCOCC4)CC3)c2c1 [Example 97]	≥ 200%
CN(C)C(=O)N1CCN(c2cncc3ccc(C(N)=O)cc23)CC1 [Example 99]	≥ 200%
NC(=O)c1ccc2cncc(N3CCC(OCC(=O)N4CCOCC4)CC3)c2n1 [Example 100]	≥ 200%
CN(CCOC1CCN(c2cncc3ccc(C(N)=O)cc23)CC1)S(C)(=O)=O [Example 102]	≥ 200%
NC(=O)c1ccc2cncc(N3CCCC(COC(F)F)C3)c2c1 (centres unmarked) [Example 103]	≥ 200%
NC(=O)c1ccc2cncc(N3CCCC(COC(F)F)C3)c2n1 (centres unmarked) [Example 104]	≥ 200%
COCC1CN(c2cncc3ccc(C(N)=O)cc23)CCO1 (centres unmarked) [Example 105]	≥ 200%
CN(C)S(=O)(=O)CCOC1CCN(c2cncc3ccc(C(N)=O)cc23)CC1 [Example 106]	≥ 200%
COCC1CN(c2cncc3ccc(C(N)=O)nc23)CCC1OC (centres unmarked) [Example 108]	≥ 200%
COCC1CN(c2cncc3ccc(C(N)=O)cc23)CCC1OC (centres unmarked) [Example 109]	≥ 200%
NC(=O)c1ccc2cncc(N3CCC(COCCOC4CCOCC4)CC3)c2n1 [Example 110]	≥ 200%
CC(C)OCCOC1CCN(c2cncc3ccc(C(N)=O)nc23)CC1 [Example 111]	≥ 200%
COCC1CCN(c2cncc3ccc(C(N)=O)nc23)CC1 [Example 112]	≥ 200%
NC(=O)c1ccc2cncc(N3CCC(OCC(=O)N4CCCC4)CC3)c2n1 [Example 113]	≥ 200%
NC(=O)c1ccc2cncc(N3CCN(C(=O)N4CCCC4)CC3)c2n1 [Example 114]	≥ 200%
CCN(C)C(=O)N1CCN(c2cncc3ccc(C(N)=O)nc23)CC1 [Example 115]	≥ 200%
CCN(C)C(=O)COC1CCN(c2cncc3ccc(C(N)=O)nc23)CC1 [Example 116]	≥ 200%
NC(=O)c1ccc2cncc(N3CCC(OCCOC4CCOC4)CC3)c2n1 (centres unmarked) [Example 117]	≥ 200%
